Measured values published in patent US20060025481A1, “Process for preparation of probucol derivatives and polymorphic forms thereof” (priority 2004, published 2006).
Each block holds one molecule with its values, some of them ahead of it.

Key:
[1] = Solid-state stability of the polymorphic forms
[2] = Hygroscopicity of the crystalline polymorphic forms; type: physicochemical; settings: crystalline solid form
[3] = cited from earlier work

Structure (SMILES): CCC(Oc1c(C(C)(C)C)cc(SC(C)(C)Sc2cc(C(C)(C)C)c(O)c(C(C)(C)C)c2)cc1C(C)(C)C)C(=O)O (stereo not drawn) [Form Al]
stability of polymorphic form [1]: acceptable stability

hygroscopicity [2]: nonhygroscopic
Structure (SMILES): CC(C)(Sc1cc(C(C)(C)C)c(O)c(C(C)(C)C)c1)Sc1cc(C(C)(C)C)c(OCC(=O)O)c(C(C)(C)C)c1 [Form A]

Structure (SMILES): CC(C)(Sc1cc(C(C)(C)C)c(O)c(C(C)(C)C)c1)Sc1cc(C(C)(C)C)c(O)c(C(C)(C)C)c1 [probucol, 4,4′-(isopropylidenedithio) bis[2,6-di-tert-butylphenol]]
solubility in water [3]: minimally soluble in water
